Experimental data as given in publication PMC6156508, “GA-Hecate antiviral properties on HCV whole cycle represent a new antiviral class and open the door for the development of broad spectrum antivirals” (Scientific Reports, 2018).
Where two headings read alike, the source gives them in different places. Where a SMILES comes first, the peptide text is derived from it. The star is where a group is joined. Galloyl = O=C(c1cc(O)c(O)c(O)c1)*

What was measured:
[1] = test system: HCVcc FL-J6/JFH-50C19Rluc2AUbi (genotype 2a); test: HCVcc replication (full-length replicon, Renilla luciferase / protein); format: cell-based, hepatitis C virus; conditions: 20 μM; 48 h; viral RNA (luciferase) and protein levels
Text: Figure 4 GA-Hecate effect on HCVcc replication. (A) HCV RNA expression measured by the Renilla luciferase reporter gene. (B) HCV non-structural (NS5A) protein expression. GAPDH was used as an endogenous control. Water was used as a negative control of virus replication inhibition (Control (−)), and cyclosporine A was used as a positive control of virus replication inhibition (Control (+)). Bars represent triplicate samples of three independent assays. RLU - Relative light units. ***P < 0.001 vs Control (−); F = 273.2, df (between columns) = 5.
Cell lines harboring subgenomic or genomic replicons were seeded at 5 × 10^3 cells /well on 96-well plates and the compounds were added 24 h post-seeding, in a concentration range between 2.5–20 μM. […] Luciferase activity was measured using a luminometer (FLUOstar Omega/BMG LABTECH, Offenburg, BW, DE). […]
HCV (FL J6/JFH) infected cells were used to evaluate virus protein expression after peptide treatment. […] Total protein was quantified using a BCA assay (Thermo-Scientific) following the manufacturer’s instructions. […] Finally, the membrane was incubated for 1 minute with Pierce ECL Western Blotting Substrate (Thermo-Scientific-Pierce, Rockford, IL, USA), and the luminescence intensity was captured on a Chemi-Doc System (Bio-Rad, Amadora, PT). […]

[2] = Permeabilization of LUVs, carboxyfluorescein release (viral envelope/cell membrane mimetic); conditions: POPC:POPS 9:1
Text: Figure 8 Permeabilization of LUVs. (A) Percentage of carboxyfluorescein release in POPC:POPS (9:1) Post addition of LUVs at different concentrations of Hecate and GA-Hecate. (B) Percentage of carboxyfluorescein release results in POPC:Cholesterol (9:1) LUVs after the addition of different concentrations of Hecate and GA-Hecate. The bars indicate SD.
Phosphatidylcholine:Cholesterol (POPC:Cholesterol - 9:1; m:m) and phosphatidylcholine:phosphatidylserine (POPC:POPS - 9:1; m:m) vesicles, which mimic lipid droplets and the virus envelope, respectively, were prepared at a concentration of 15 mmol·L^−1. Each mixture was submitted to lipid solubilization in chloroform/methanol (4:1; v:v) and subsequent evaporation by nitrogen gas flow, resulting in the formation of a lipid film. The product evaporated using a vacuum procedure for complete removal of the solvents and then a solution containing the fluorophore carboxyfluorescein (CF; 50 mM) was added. The mixture was warmed up to 60 °C, sonicated and agitated for equal periods for 10 min to allow for the formation of vesicles encapsulated with CF. Following this, the mixture was processed in an extruder machine (Avanti Polar Lipids) to obtain large unilamellar vesicles. The obtained solution was then applied to a size exclusion column with Sephadex G20 resin for separation of the unencapsulated CF. […]

[3] = test system: HCV subgenomic replicon SGR-Feo-JFH-1 (genotype 2a); test: HCV subgenomic replicon replication, luciferase assay (genotype 2a); format: cell-based, hepatitis C virus
Text: Figure 2 Hecate and its derivative-peptide effects on subgenomic HCV genotype 2a replication and hepatotoxicity. (A) Hecate. (B) Lys- Hecate. (C) GA-Hecate. (D) GA2-Hecate. (E) Acetyl-Hecate. (F) Glu-Hecate. Luciferase assays report HCV replication and MTT assays report the viability of Huh-7.5 cells harboring SGR-JFH-1 Feo under peptide treatment. Water was used as a negative control of virus replication inhibition and cell death (Control (−)), and Cyclosporine A was used as a positive control for virus replication inhibition (Control (+)). Red dotted lines represent the arbitrary threshold of 80% cell viability, and blue dotted lines represent the maximum inhibition presented by Hecate at the maximum safe concentration. Bars represent triplicates of the three independent assays. ***P < 0.01 vs control (−).
Cell lines harboring subgenomic or genomic replicons were seeded at 5 × 10^3 cells /well on 96-well plates and the compounds were added 24 h post-seeding, in a concentration range between 2.5–20 μM. After 48 h of treatment, the cells were disrupted with 30 μL of passive lysis buffer (Promega, Madison, WI, USA), and luciferase substrate (Promega, Madison, WI, USA) was automatically added to each sample. Luciferase activity was measured using a luminometer (FLUOstar Omega/BMG LABTECH, Offenburg, BW, DE). The same assays were performed in Huh-7.5 cell lines harboring SGR-JFH1 Feo, S52/SG-neo or FL-J6/JFH-50C19Rluc2AUbi. Cyclosporine A (Sigma-Aldrich) at 1 μM was used as positive control of viral replication inhibition and dH2O as negative control.
GA-Hecate toxicity and viral inhibition profile in 24, 48 and 72h post-treatment in […]
GA-Hecate toxicity and viral inhibition capacity were evaluated at 24, 48 and 72h post-treatment. Tested concentrations were 1.25; 2.5; 5; 10; 20; and 40 µM. At the end of every incubation, cells were stained using MTT as previously described. Similarly, at every time point, treated cells were lysed using PLB and summited to Luminescence analysis as previously described. […]

CC(C)C[C@H](NC(=O)[C@H](C)NC(=O)[C@H](CCCCN)NC(=O)[C@H](CCCCN)NC(=O)[C@H](CC(C)C)NC(=O)[C@H](C)NC(=O)[C@H](CCCCN)NC(=O)[C@H](CCCCN)NC(=O)[C@H](CC(C)C)NC(=O)[C@H](CCCCN)NC(=O)[C@H](CCCCN)NC(=O)[C@H](CC(C)C)NC(=O)[C@H](C)NC(=O)[C@H](CCCCN)NC(=O)[C@H](CCCCN)NC(=O)[C@H](CC(C)C)NC(=O)[C@H](C)NC(=O)[C@H](CCCCN)NC(=O)[C@H](CC(C)C)NC(=O)[C@H](C)NC(=O)[C@H](CC(C)C)NC(=O)[C@H](C)NC(=O)[C@H](Cc1ccccc1)NC(=O)c1cc(O)c(O)c(O)c1)C(N)=O [GA-Hecate] (Galloyl-FALALKALKKALKKLKKALKKAL-NH2)
inhibition of HCVcc replication [1]: approximately 85%
interaction capacity relative to Hecate (fold lower) [2]: 2- to 3 fold
permeabilization of LUVs (carboxyfluorescein release) ([2]; peptide 0.1 μM, 1% Triton = 100%, once in triplicate): ~20%
inhibition of viral replication ([3]; 1.25 µM, 72 h): about 50%
SI (selectivity index), ratio CC50/EC50 ([3]; 48 h, genotype 2a replicon): 3.13
SI 72 h post-treatment ([3]; 72 h): 5
EC50 ([3]; Huh-7.5 harbouring SGR-Feo-JFH-1 genotype 2a, 48 h treatment, 2.5-20 μM, luciferase, triplicate in three independent assays, read-out: EC50 (50% effective concentration for HCV)): 11.2 µM
EC50 ([3]; SGR-Feo JFH-1, 72 h, 1.25-40 µM, read-out: EC50 72 h post-treatment (IC50 in the supplement)): 3.8 µM
inhibition of HCV replication at the maximum safe concentration ([3]; genotype 2a replicon, 48 h, at each peptide's maximum safe concentration (Hecate 10 μM; Lys-, Glu-, Acetyl-Hecate 5 μM)): approximately 80%
